From article PMC9481151, “Discovery of new symmetrical and asymmetrical nitrile-containing 1,4-dihydropyridine derivatives as dual kinases and P-glycoprotein inhibitors: synthesis, in vitro assays, and in silico studies” (Journal of Enzyme Inhibition and Medicinal Chemistry, 2022)

Legend:
[1] = tested on: SF-539; experiment: NCI single dose (10 µM) SRB screen; format: cell-based, human; conditions: CNS cancer, 48 h
[2] = tested on: PC-3; experiment: NCI single dose (10 µM) SRB screen; format: cell-based, human; conditions: prostate cancer, 48 h
[3] = tested on: Staphylococcus aureus; experiment: Agar well diffusion method
[4] = tested on: SK-MEL-28; experiment: NCI single dose (10 µM) SRB screen; format: cell-based, human; conditions: melanoma, 48 h
[5] = tested on: UACC-257; experiment: NCI single dose (10 µM) SRB screen; format: cell-based, human; conditions: melanoma, 48 h
[6] = tested on: HS578T; experiment: NCI single dose (10 µM) SRB screen; format: cell-based, human; conditions: breast cancer, 48 h
[7] = tested on: SR; experiment: NCI single dose (10 µM) SRB screen; format: cell-based, human; conditions: leukaemia, 48 h
[8] = tested on: MOLT-4; experiment: NCI single dose (10 µM) SRB screen; format: cell-based, human; conditions: leukaemia, 48 h
[9] = tested on: SF-268; experiment: NCI single dose (10 µM) SRB screen; format: cell-based, human; conditions: CNS cancer, 48 h
[10] = tested on: NCI-H322M; experiment: NCI single dose (10 µM) SRB screen; format: cell-based; conditions: non-small cell lung cancer, 48 h
[11] = tested on: NCI-H226; experiment: NCI single dose (10 µM) SRB screen; format: cell-based, human; conditions: non-small cell lung cancer, 48 h
[12] = tested on: U251; experiment: NCI single dose (10 µM) SRB screen; format: cell-based, human; conditions: CNS cancer, 48 h
[13] = tested on: NCI-H23; experiment: NCI single dose (10 µM) SRB screen; format: cell-based, human; conditions: non-small cell lung cancer, 48 h
[14] = tested on: Escherichia coli; experiment: Agar well diffusion method
[15] = tested on: HCC-2998; experiment: NCI single dose (10 µM) SRB screen; format: cell-based, human; conditions: colon cancer, 48 h
[16] = tested on: IGROV1; experiment: NCI single dose (10 µM) SRB screen; format: cell-based, human; conditions: ovarian cancer, 48 h
[17] = tested on: LOX IMVI; experiment: NCI single dose (10 µM) SRB screen; format: cell-based, human; conditions: melanoma, 48 h
[18] = tested on: TK-10; experiment: NCI single dose (10 µM) SRB screen; format: cell-based, human; conditions: renal cancer, 48 h
[19] = tested on: HOP-62; experiment: NCI single dose (10 µM) SRB screen; format: cell-based, human; conditions: non-small cell lung cancer, 48 h
[20] = tested on: RPMI-8226; experiment: NCI single dose (10 µM) SRB screen; format: cell-based, human; conditions: leukaemia, 48 h
[21] = tested on: NCI 60 cancer cell lines; experiment: NCI single dose (10 µM) SRB screen, mean over panel; format: cell-based, human; conditions: mean over 60 cell lines, 48 h
[22] = tested on: OVCAR-3; experiment: NCI single dose (10 µM) SRB screen; format: cell-based, human; conditions: ovarian cancer, 48 h
[23] = tested on: OVCAR-4; experiment: NCI single dose (10 µM) SRB screen; format: cell-based, human; conditions: ovarian cancer, 48 h
[24] = tested on: MDA-MB-468; experiment: NCI single dose (10 µM) SRB screen; format: cell-based, human; conditions: breast cancer, 48 h
[25] = tested on: UO-31; experiment: NCI single dose (10 µM) SRB screen; format: cell-based, human; conditions: renal cancer, 48 h
[26] = tested on: 786-0; experiment: NCI single dose (10 µM) SRB screen; format: cell-based, human; conditions: renal cancer, 48 h
[27] = tested on: DU-145; experiment: NCI single dose (10 µM) SRB screen; format: cell-based, human; conditions: prostate cancer, 48 h
[28] = tested on: SNB-19; experiment: NCI single dose (10 µM) SRB screen; format: cell-based, human; conditions: CNS cancer, 48 h
[29] = tested on: Bacillus subtilis; experiment: Agar well diffusion method
[30] = tested on: HCT-15; experiment: NCI single dose (10 µM) SRB screen; format: cell-based, human; conditions: colon cancer, 48 h
[31] = tested on: NCI/ADR-RES; experiment: NCI single dose (10 µM) SRB screen; format: cell-based, human; conditions: ovarian cancer, 48 h
[32] = tested on: SN12C; experiment: NCI single dose (10 µM) SRB screen; format: cell-based, human; conditions: renal cancer, 48 h
[33] = tested on: SF-295; experiment: NCI single dose (10 µM) SRB screen; format: cell-based, human; conditions: CNS cancer, 48 h
[34] = tested on: CAKI-1; experiment: NCI single dose (10 µM) SRB screen; format: cell-based, human; conditions: renal cancer, 48 h
[35] = tested on: SW-620; experiment: NCI single dose (10 µM) SRB screen; format: cell-based, human; conditions: colon cancer, 48 h
[36] = tested on: A549/ATCC; experiment: NCI single dose (10 µM) SRB screen; format: cell-based, human; conditions: non-small cell lung cancer, 48 h
[37] = tested on: NCI-H522; experiment: NCI single dose (10 µM) SRB screen; format: cell-based, human; conditions: non-small cell lung cancer, 48 h
[38] = tested on: RXF 393; experiment: NCI single dose (10 µM) SRB screen; format: cell-based, human; conditions: renal cancer, 48 h
[39] = tested on: M14; experiment: NCI single dose (10 µM) SRB screen; format: cell-based, human; conditions: melanoma, 48 h
[40] = tested on: Aspergillus flavus; experiment: Agar well diffusion method
[41] = tested on: COLO 205; experiment: NCI single dose (10 µM) SRB screen; format: cell-based, human; conditions: colon cancer, 48 h
[42] = tested on: OVCAR-8; experiment: NCI single dose (10 µM) SRB screen; format: cell-based, human; conditions: ovarian cancer, 48 h
[43] = tested on: MDA-MB-231; experiment: NCI single dose (10 µM) SRB screen; format: cell-based, human; conditions: breast cancer, 48 h
[44] = tested on: SNB-75; experiment: NCI single dose (10 µM) SRB screen; format: cell-based, human; conditions: CNS cancer, 48 h
[45] = tested on: Candida albicans; experiment: Agar well diffusion method
[46] = tested on: MALME-3M; experiment: NCI single dose (10 µM) SRB screen; format: cell-based, human; conditions: melanoma, 48 h
[47] = tested on: BT-549; experiment: NCI single dose (10 µM) SRB screen; format: cell-based, human; conditions: breast cancer, 48 h
[48] = tested on: MDA-MB-435; experiment: NCI single dose (10 µM) SRB screen; format: cell-based, human; conditions: melanoma, 48 h
[49] = tested on: UACC-62; experiment: NCI single dose (10 µM) SRB screen; format: cell-based, human; conditions: melanoma, 48 h
[50] = tested on: T-47D; experiment: NCI single dose (10 µM) SRB screen; format: cell-based, human; conditions: breast cancer, 48 h

CCOC(=O)C1=C(C)NC(C)=C(C(=O)OCCOC)C1c1cccc(C#N)c1 (racemic) [Compound 2k, (±)-3-Ethyl 5-(2-methoxyethyl) 4-(3-cyanophenyl)-2,6-dimethyl-1,4-dihydropyridine-3,5-dicarboxylate]
GI% SF-539 [1]: – (Only GI% ≥ 10 are shown) | GI% PC-3 [2]: – (Only GI% ≥ 10 are shown) | zone of inhibition at 1000 µg/mL ([3]; Staphylococcus aureus, 24 h, read-out: Diameter of inhibition zone, S. aureus): 17 mm | % activity index, S. aureus ([3]; relative to ciprofloxacin): 70.8% | GI% SK-MEL-28 [4]: – (Only GI% ≥ 10 are shown) | GI% UACC-257 [5]: – (Only GI% ≥ 10 are shown) | GI% HS578T [6]: – (Only GI% ≥ 10 are shown) | GI% SR [7]: 13% | GI% MOLT-4 [8]: – (Only GI% ≥ 10 are shown) | GI% SF-268 [9]: – (Only GI% ≥ 10 are shown) | GI% NCI-H322M [10]: – (Only GI% ≥ 10 are shown) | GI% NCI-H226 [11]: – (Only GI% ≥ 10 are shown) | GI% U251 [12]: – (Only GI% ≥ 10 are shown) | GI% NCI-H23 [13]: – (Only GI% ≥ 10 are shown) | zone of inhibition at 1000 µg/mL ([14]; Escherichia coli, 24 h, read-out: Diameter of inhibition zone, E. coli): 15 mm | % activity index, E. coli ([14]; relative to ciprofloxacin): 57.7% | GI% HCC-2998 [15]: – (Only GI% ≥ 10 are shown) | GI% IGROV1 [16]: – (Only GI% ≥ 10 are shown) | GI% LOX IMVI [17]: – (Only GI% ≥ 10 are shown) | GI% TK-10 [18]: – (Only GI% ≥ 10 are shown) | GI% HOP-62 [19]: – (Only GI% ≥ 10 are shown) | GI% RPMI-8226 [20]: – (Only GI% ≥ 10 are shown) | Mean GI% [21]: −1% | GI% OVCAR-3 [22]: – (Only GI% ≥ 10 are shown) | GI% OVCAR-4 [23]: – (Only GI% ≥ 10 are shown) | GI% MDA-MB-468 [24]: – (Only GI% ≥ 10 are shown) | GI% UO-31 [25]: – (Only GI% ≥ 10 are shown) | GI% 786-0 [26]: – (Only GI% ≥ 10 are shown) | GI% DU-145 [27]: – (Only GI% ≥ 10 are shown) | GI% SNB-19 [28]: – (Only GI% ≥ 10 are shown) | zone of inhibition at 1000 µg/mL ([29]; Bacillus subtilis, 24 h, read-out: Diameter of inhibition zone, B. subtilis): 13 mm | % activity index, B. subtilis ([29]; relative to ciprofloxacin): 56.5% | GI% HCT-15 [30]: – (Only GI% ≥ 10 are shown) | GI% NCI/ADR-RES [31]: – (Only GI% ≥ 10 are shown) | GI% SN12C [32]: – (Only GI% ≥ 10 are shown) | GI% SF-295 [33]: – (Only GI% ≥ 10 are shown) | GI% CAKI-1 [34]: – (Only GI% ≥ 10 are shown) | GI% SW-620 [35]: – (Only GI% ≥ 10 are shown) | GI% A549/ATCC [36]: – (Only GI% ≥ 10 are shown) | GI% NCI-H522 [37]: – (Only GI% ≥ 10 are shown) | GI% RXF 393 [38]: – (Only GI% ≥ 10 are shown) | GI% M14 [39]: – (Only GI% ≥ 10 are shown) | zone of inhibition at 1000 µg/mL ([40]; Aspergillus flavus, 24 h, read-out: Diameter of inhibition zone, A. flavus): 18 mm | % activity index, A. flavus ([40]; relative to clotrimazole): 72% | GI% COLO 205 [41]: – (Only GI% ≥ 10 are shown) | GI% OVCAR-8 [42]: – (Only GI% ≥ 10 are shown) | GI% MDA-MB-231 [43]: – (Only GI% ≥ 10 are shown) | GI% SNB-75 [44]: – (Only GI% ≥ 10 are shown) | zone of inhibition at 1000 µg/mL ([45]; Candida albicans, 24 h, read-out: Diameter of inhibition zone, C. albicans): 16 mm | % activity index, C. albicans ([45]; relative to clotrimazole): 59.2% | GI% MALME-3M [46]: – (Only GI% ≥ 10 are shown) | GI% BT-549 [47]: – (Only GI% ≥ 10 are shown) | GI% MDA-MB-435 [48]: – (Only GI% ≥ 10 are shown) | GI% UACC-62 [49]: – (Only GI% ≥ 10 are shown) | GI% T-47D [50]: – (Only GI% ≥ 10 are shown)
